≈ marks a conversion by molar mass, not a printed value. Calls of active or inactive are those of the source. The calls are words filed in the database; no cut-off is given here. Residues, ends and D or L forms follow the SMILES beside them. *: point of attachment. Decanoyl = CCCCCCCCCC(=O)*
Assays:
[1] = Inhibition of Staphylococcus aureus type I signal peptidase SpsB-mediated processing of internally quenched fluorescent synthetic peptide substrate
Staphylococcus aureus [2] = assay: Inhibition of Staphylococcus aureus type I signal peptidase SpsB-mediated processing of internally quenched fluorescent synthetic peptide substrate at 200 uM
[3] = biological target: Signal peptidase I (Escherichia coli K-12) (UniProt P00803); assay: (§1) Inhibition of Escherichia coli type I signal peptidase lepB
Signal peptidase I (Escherichia coli K-12), sequence (P00803 whole entry): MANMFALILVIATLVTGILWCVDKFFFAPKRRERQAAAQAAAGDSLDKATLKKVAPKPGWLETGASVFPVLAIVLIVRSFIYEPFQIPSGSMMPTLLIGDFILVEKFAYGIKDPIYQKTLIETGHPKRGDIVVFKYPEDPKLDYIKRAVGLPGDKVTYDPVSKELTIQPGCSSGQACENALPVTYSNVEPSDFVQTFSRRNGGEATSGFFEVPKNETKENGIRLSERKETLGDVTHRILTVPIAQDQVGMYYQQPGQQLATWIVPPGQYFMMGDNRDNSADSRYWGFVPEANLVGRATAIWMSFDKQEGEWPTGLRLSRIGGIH

Staphylococcus aureus [4] = assay: Antimicrobial activity against Staphylococcus aureus by broth microdilution method; assay type: functional
[5] = test system: Staphylococcus epidermidis; assay: Antimicrobial activity against Staphylococcus epidermidis by broth microdilution method; assay type: functional
Escherichia coli = assay: Antimicrobial activity against Escherichia coli by broth microdilution method; assay type: functional
Signal peptidase I = Signal peptidase I (Escherichia coli K-12, UniProt P00803); assay: as §1
Signal peptidase I, sequence (P00803 whole entry): as above

Row | SMILES | IC50 [1] | inhibition (Staphylococcus aureus [2]) | Activity [3] | other results
1 | CCCCCCCCCC(=O)N[C@H](C(=O)N[C@@H](C)C(=O)N[C@@H](CCCCN)C(=O)N[C@@H](C)C(=O)N1CCC[C@H]1C(=O)N[C@@H](CO)C(=O)N[C@@H](CCCCN)C(=O)N[C@H](C(=O)N[C@@H](CC(=O)O)C(=O)N[C@@H](CC(=O)O)C(=O)O)[C@@H](C)CC)[C@@H](C)O (Decanoyl-TAKAPSKIDD-OH) | 30.8 µM | 98% | inactive | –
2 | CCCCCCCCCC(=O)N[C@@H](CC(C)C)C(=O)N[C@H](C(=O)N1CCC[C@H]1C(=O)N[C@H](C(=O)N[C@@H](C)C(=O)N[C@@H](CCCCN)C(=O)N[C@@H](C)C(=O)N1CCC[C@H]1C(=O)N[C@@H](CO)C(=O)O)[C@@H](C)O)[C@@H](C)O (Decanoyl-LTPTAKAPS-OH) | 22.5 µM | 92.9% | inactive | –
3 | CCCCCCCCCC(=O)N[C@@H](C)C(=O)N[C@@H](CCCCN)C(=O)N[C@@H](C)C(=O)N1CCC[C@H]1C(=O)N[C@@H](CO)C(=O)N[C@@H](CCCCN)C(=O)N[C@H](C(=O)N[C@@H](CC(=O)O)C(=O)N[C@@H](CC(=O)O)C(=O)O)[C@@H](C)CC (Decanoyl-AKAPSKIDD-OH) | > 200 µM | 0% | inactive | –
4 | CC[C@H](C)[C@H](NC(=O)[C@H](CCCCN)NC(=O)[C@H](CO)NC(=O)[C@@H]1CCCN1C(=O)[C@H](C)NC(=O)[C@H](CCCCN)NC(=O)[C@H](C)NC(=O)[C@@H](NC(=O)[C@@H]1CCCN1C(=O)[C@@H](NC(=O)[C@@H](N)CC(C)C)[C@@H](C)O)[C@@H](C)O)C(=O)N[C@@H](CC(=O)O)C(=O)N[C@@H](CC(=O)O)C(=O)O (H-LTPTAKAPSKIDD-OH) | > 200 µM | 21.6% | inactive | –
5 | CCCCCCCCCC(=O)N[C@@H](CC(C)C)C(=O)N[C@H](C(=O)N1CCC[C@H]1C(=O)N[C@H](C(=O)N[C@@H](C)C(=O)N[C@@H](CCCCN)C(=O)N[C@@H](C)C(=O)N1CCC[C@H]1C(=O)N[C@@H](CO)C(=O)N[C@@H](CCCCN)C(=O)N[C@H](C(=O)N[C@@H](CC(=O)O)C(=O)O)[C@@H](C)CC)[C@@H](C)O)[C@@H](C)O (Decanoyl-LTPTAKAPSKID-OH) | 5 µM | 108% | inactive | –

Now those with a lower IC50 [1], led by results:

Row | IC50 [1] | inhibition (Staphylococcus aureus [2]) | Activity [3] | SMILES | other results
6 | 4.8 µM | 106% | inactive | CCCCCCCCCC(=O)N[C@H](C(=O)N1CCC[C@H]1C(=O)N[C@H](C(=O)N[C@@H](C)C(=O)N[C@@H](CCCCN)C(=O)N[C@@H](C)C(=O)N1CCC[C@H]1C(=O)N[C@@H](CO)C(=O)N[C@@H](CCCCN)C(=O)N[C@H](C(=O)N[C@@H](CC(=O)O)C(=O)N[C@@H](CC(=O)O)C(=O)O)[C@@H](C)CC)[C@@H](C)O)[C@@H](C)O (Decanoyl-TPTAKAPSKIDD-OH) | –
7 | 3.2 µM | 106% | inactive | CCCCCCCCCC(=O)N1CCC[C@H]1C(=O)N[C@H](C(=O)N[C@@H](C)C(=O)N[C@@H](CCCCN)C(=O)N[C@@H](C)C(=O)N1CCC[C@H]1C(=O)N[C@@H](CO)C(=O)N[C@@H](CCCCN)C(=O)N[C@H](C(=O)N[C@@H](CC(=O)O)C(=O)N[C@@H](CC(=O)O)C(=O)O)[C@@H](C)CC)[C@@H](C)O (Decanoyl-PTAKAPSKIDD-OH) | –
8 | 2.6 µM | 107% | inactive | CCCCCCCCCC(=O)N[C@@H](CC(C)C)C(=O)N[C@H](C(=O)N1CCC[C@H]1C(=O)N[C@H](C(=O)N[C@@H](C)C(=O)N[C@@H](CCCCN)C(=O)N[C@@H](C)C(=O)N1CCC[C@H]1C(=O)N[C@@H](CO)C(=O)N[C@@H](CCCCN)C(=O)N[C@H](C(=O)O)[C@@H](C)CC)[C@@H](C)O)[C@@H](C)O (Decanoyl-LTPTAKAPSKI-OH) | –
9 | 1 µM | 108% | inactive | CCCCCCCCCC(=O)N[C@@H](CC(C)C)C(=O)N[C@H](C(=O)N1CCC[C@H]1C(=O)N[C@H](C(=O)N[C@@H](C)C(=O)N[C@@H](CCCCN)C(=O)N[C@@H](C)C(=O)N1CCC[C@H]1C(=O)N[C@@H](CO)C(=O)N[C@@H](CCCCN)C(=O)O)[C@@H](C)O)[C@@H](C)O (Decanoyl-LTPTAKAPSK-OH) | –
10 | 0.8 µM | 107% | inactive | CCCCCCCCCC(=O)N[C@@H](CC(C)C)C(=O)N[C@H](C(=O)N1CCC[C@H]1C(=O)N[C@H](C(=O)N[C@@H](C)C(=O)N[C@@H](CCCCN)C(=O)N[C@@H](C)C(=O)N1CCC[C@H]1C(=O)N[C@@H](CO)C(=O)N[C@@H](CCCCN)C(=O)N[C@H](C(=O)N[C@@H](CC(=O)O)C(=O)N[C@@H](CC(=O)O)C(=O)O)[C@@H](C)CC)[C@@H](C)O)[C@@H](C)O (Decanoyl-LTPTAKAPSKIDD-OH) | Activity (Staphylococcus aureus [4]): inactive; Activity [5]: inactive; Activity (Escherichia coli): inactive
11 | 0.09 µM | – | – | CCCCCCCCCC(=O)N1CCC[C@H]1C(=O)N[C@H](C(=O)N[C@@H](C)C(=O)N[C@@H](CC(N)=O)C(=O)N[C@@H](C)C=O)[C@@H](C)O (Decanoyl-PTANA-aldehyde) | IC50 (Signal peptidase I): 13.4 µM; MIC (Staphylococcus aureus [4]): 125 µg/mL (≈ 205 µM); MIC [5]: 500 µg/mL (≈ 819 µM); MIC (Escherichia coli): > 500 µg/mL
